Results as given in patent US20260085039A1 (priority 2022, published 2026).
≈ marks a conversion by molar mass, not a printed value. Entries after “also recorded” stand apart in the source; their conditions may differ. Where two headings read alike, the source gives them in different places.

Experiments:
[1] = acid for salt screen; cited from earlier work
[2] = Drying studies, form by XRPD after vacuum drying; format: physicochemical; conditions: RT, 1 d
Procedure: XRPD patterns were collected with a PANalytical X'Pert PRO MPD or Empyrean diffractometer using an incident beam of Cu radiation produced using an Optix long, fine-focus source. An elliptically graded multilayer mirror was used to focus Cu Kα X-ray radiation through the specimen and onto the detector. Prior to the analysis, a silicon specimen (NIST SRM 640f) was analyzed to verify the observed position of the Si (111) peak is consistent with the NIST-certified position. A specimen of the sample was sandwiched between 3-μm-thick films and analyzed in transmission geometry. A beam-stop, short antiscatter extension, and antiscatter knife edge were used to minimize the background generated by air. Soller slits for the incident and diffracted beams were used to minimize broadening from axial divergence. Diffraction patterns were collected using a scanning position-sensitive detector (X'Celerator) located 240 mm from the specimen and Data Collector software v. 5.5.

[3] = Solubility (appearance) and pH in saline; format: physicochemical
[4] = Stability in saline by HPLC psilocin peak area over time; conditions: aqueous solution such as saline, 36 hours
[5] = Approximate solubility by solvent aliquot addition, visual inspection, ambient temperature; format: physicochemical
Procedure: Weighed samples were treated with aliquots of designated solvent at ambient temperature. Complete dissolution of the test material was determined by visual inspection. Solubility was estimated based on the total solvent volume used to provide the complete dissolution. If complete dissolution was achieved by only one aliquot addition, the value is reported as “larger than”; if complete dissolution was not achieved, the value is reported as “less than”. The actual solubility may be greater than the value calculated because of the use of solvent aliquots that were too large or due to a slow rate of dissolution.

[6] = Observation of solubility samples after 1 day ambient storage (discoloration); format: physicochemical
Source text: The solubility estimates were utilized to design experiments for the salt screen.

**Q.** With `O=C(O)C=C(CC(=O)O)C(=O)O` [Aconitic acid] as the compound, how does the pKa1 [1] read?
**A.** The pKa1 was 2.80.

**Q.** Which pKa1 [1] does the source give for `O=S(=O)(O)c1ccccc1` [Benzesulfonic acid] here?
**A.** The pKa1 was 0.17.

**Q.** Which “XRPD Result after drying” value [2] does the source give for `CN(C)CCc1c[nH]c2cccc(O)c12.O=C(O)c1ccccc1` [Benzoate Form A] here?
**A.** Its value is “maintains the same form; also recorded: Benzoate Form A”.

**Q.** For `O=C1O[C@H]([C@H](O)CO)C(O)=C1O` [Erythorbic acid], which pKa1 [1] is on record?
**A.** Its pKa1 is 2.1.

**Q.** Which Appearance in solution ([3]; 1.0 mg/mL in saline) does the source give for `CCCC(=O)O.CN(C)CCc1c[nH]c2cccc(O)c12` [Psilocin butyrate] here?
**A.** Its Appearance in solution is “Visually soluble, clear solution”.

**Q.** And the pH ([3]; 1.0 mg/mL in saline)?
**A.** The pH was 6.281.

**Q.** Which pKa1 [1] does the source give for `O=C1CC[C@@H](C(=O)O)N1` [Pyrogluatmic acid] here?
**A.** The pKa1 was 3.32.

**Q.** With `C/C=C/C=C/C(=O)O` [Sorbic acid] as the compound, how does the pKa1 [1] read?
**A.** The pKa1 was 4.75.

**Q.** What does the source list for `CN(C)CCc1c[nH]c2cccc(O)c12` [psilocin, 4-hydroxy-N,N-dimethyltryptamine]?
**A.** decrease in the amount of psilocin present over time [4]: ≥ 15%; solubility ([5]; ACN, ambient temperature, estimated): 9 mg/mL (≈ 44.1 mM); solubility ([5]; EtOAc, ambient temperature, estimated): 8 mg/mL (≈ 39.2 mM); solubility ([5]; ethanol, organic solvent or mixture, thermodynamic from solid, EtOH, ambient temperature, estimated, read-out: Solubility): < 1 mg/mL; solubility ([5]; methanol, organic solvent or mixture, thermodynamic from solid, MeOH, ambient temperature, estimated, read-out: Solubility): < 1 mg/mL; solubility ([5]; organic solvent or mixture, thermodynamic from solid, Acetone, ambient temperature, estimated, read-out: Solubility): 20 mg/mL (≈ 97.9 mM); solubility ([5]; organic solvent or mixture, thermodynamic from solid, Dioxane, ambient temperature, estimated, read-out: Solubility): 18 mg/mL (≈ 88.1 mM); solubility ([5]; other organic solvents (not water, not alcohols), organic solvent or mixture, thermodynamic from solid, read-out: Solubility): ≥ 8 mg/mL; solubility ([5]; tetrahydrofuran, organic solvent or mixture, thermodynamic from solid, THF, ambient temperature, estimated, read-out: Solubility): 18 mg/mL (≈ 88.1 mM); solubility ([5]; water and alcohols): poorly soluble; solubility ([5]; water, thermodynamic from solid, H20, ambient temperature, estimated, read-out: Solubility): < 1 mg/mL; Appearance in solution ([3]; 0.1 mg/mL in saline): Visually soluble, clear solution; pH ([3]; 0.1 mg/mL in saline): 9.053; Appearance in solution ([3]; 1.0 mg/mL in saline): Cloudy solution, not soluble; pH ([3]; 1.0 mg/mL in saline): 9.395; Observation after 1 day ambient storage ([6]; ACN): No discoloration; Observation after 1 day ambient storage ([6]; Acetone): No discoloration; Observation after 1 day ambient storage ([6]; Dioxane): No discoloration; Observation after 1 day ambient storage ([6]; EtOAc): No discoloration; Observation after 1 day ambient storage ([6]; EtOH): No discoloration; Observation after 1 day ambient storage ([6]; H20): Discoloration (black suspension); Observation after 1 day ambient storage ([6]; H20, listed as Psilocin free base): strong discoloration (black); Observation after 1 day ambient storage ([6]; MeOH): No discoloration; Observation after 1 day ambient storage ([6]; THF): No discoloration
